# No end group written: not given here.
# Columns and labels:
# ERK = assay: Adhesion checkpoint activation, western blot of ERK phosphorylation (Ras/MAP kinase); assay type: cell-based, human; details: osteosarcoma cells on PET associations; 24 hours
# Method: (§1) After 24 hours of culture, cells were permeabilized (10% SDS, 25 mM NaCl, 10 nM pepstatin and 10 nM leupeptin in distilled water and loading buffer), boiled for 10 minutes and resolved by reducing PAGE (Invitrogen). Proteins were transferred onto nitrocellulose, blocked, and labeled with HRP-conjugated antibodies (Invitrogen). Integrin αv, α5, α3, α4, β1, β, β5 and […] were blotted by treating the nitrocellulose with monoclonal anti-integrin (extracellular domain) αv, α5, α3, α4, β1, β3, β5 and β6 antibodies (Santa Cruz Biotechnology). Phosphor-Smad1/5/8 was blotted by treating the nitrocellulose with monoclonal anti-p-Smad1/5/8 (Santa Cruz Biotechnology). For all of the experiments the western blot was performed in triplicate, along with an additional blot for actin and coomassie blue staining to ensure constant protein load among samples.
# (§2) Neoplastic cells (in this example osteosarcoma cells) were cultured on pharmaceutical associations comprising PET as a bioactive carrier and one of GFR-binding compounds of SEQ ID NO: 12, 19, 30 or 39. The main signaling pathways include: Ras/MAP kinase, FAK/Src kinase and PIP2 which are decreased after 24 hours as shown by western blot quantifications (FIG. 8). […] Finally, a decrease of 3-phosphoinositide-dependent protein kinase 1 (PDK1) protein expression was also was observed (FIG. 8C).
# Src kinase = assay: Adhesion checkpoint activation, western blot of Src kinase phosphorylation (FAK/Src kinase); assay type: cell-based, human; details: osteosarcoma cells on PET associations; 24 hours
# Method: as §1, §2
# [1] = system: 3-phosphoinositide-dependent protein kinase 1 (PDK1); assay: Adhesion checkpoint activation, western blot of PDK1 protein expression (PIP2); assay type: cell-based, human; details: osteosarcoma cells on PET associations; 24 hours
# Method: as §1, §2
# Paxillin = Paxillin gene expression by RT-PCR; assay type: cell-based, human; details: osteosarcoma cells on PET associations; 24 hours
# Method: (§3) After 24 hours of culture, total RNA was extracted by using the RNeasy total RNA kit (Qiagen®) according to the manufacturer's instructions. Purified total RNA was used as a template in order to make cDNA by a reverse transcription reaction (Gibco BrI®) with random primers (Invitrogen®). The cDNA was then used as a template for a real-time PCR amplification in the presence of SYBR green reagents (Bio-Rad®) by using a thermocycler (iCycler, Biorad®). Data were analyzed with the iCycler IQ™® software and compared by the ΔΔCt method. Briefly, the mean Ct value of the target gene was normalized to its averaged Ct values of the housekeeping gene (GAPDH) to give a ΔCt value, which was then normalized to a control sample to obtain a ΔΔCt value. The results were obtained from two series of experiments performed in triplicate.
# (§4) Neoplastic cells (in this example osteosarcoma cells) were cultured on pharmaceutical associations comprising PET as a bioactive carrier and one of GFR-binding compounds of SEQ ID NO: 12, 19, 30 or 39. After 24 hours, the Paxillin and Vinculin gene expression decreased as shown by RT-PCR (FIG. 9).
# Vinculin = Vinculin gene expression by RT-PCR; assay type: cell-based, human; details: osteosarcoma cells on PET associations; 24 hours
# Method: as §3, §4
# [2] = system: Cyclin D (arithmetic mean of Cyclin D1, Cyclin D2 and Cyclin D3); assay: Cyclin D profile by RT-PCR; assay type: cell-based, human; details: osteosarcoma cells on PET associations; after the first 30 min of cell culture
# Method: as §3
# Neoplastic cells (in this example osteosarcoma cells) were cultured on pharmaceutical associations comprising PET as a bioactive carrier and one of GFR-binding compounds of SEQ ID NO: 12, 19, 30 or 39. The Cyclin D (the arithmetic mean of Cyclin D1, Cyclin D2 and Cyclin D3) gene expression decreased after the first 30 min of cell culture as shown by RT-PCR (FIG. 10).
# [3] = Stability of non-covalent association, release of FITC-labelled GFR-binding compound from carrier; assay type: physicochemical; details: SEQ ID NO: 9 with apatite ceramics, SEQ ID NO: 10 with type-I collagen sponge; after 3, 7 or 10 days
# Method: Non-covalent associations of the bioactive carriers were performed under atmospheric conditions (air) at room temperature (about 22° C.). The non-covalent association was carried out using a mixture of GFR-binding compound of SEQ ID NO: 9 (concentration of 1×10^−3 M) with the apatite ceramics or a mixture of GFR-binding compound of SEQ ID NO: 10 (concentration of 1×10^−3M) with the type-I collagen sponge. The non-covalent pharmaceutical associations were characterized by covalently associating fluorescent GFR-binding compounds of SEQ ID NO: 9 and 10 (covalently bound to fluorescein isothiocyanate (FITC), FIG. 1).
# [4] = system: neoplastic cells (osteosarcoma cells); assay: Immunofluorescence visualization (actin, vinculin, DAPI) of neoplastic cells on grafted polymer scaffold, 24 hours; assay type: cell-based; details: polymer scaffold covalently modified with mixture of GFR-binding compound and RGD peptide; 24 hours of culture
# Method: FIG. 12 is (a) a representation of a Quantitative Real Time PCR analysis of the expression of DMP-1, SCT and RANK-L in neoplastic cells (osteosarcoma cells) cultured on a native polymer scaffold (control) and on a polymer scaffold grafted with a mixture comprising a GFR-binding compound as defined in the present disclosure and a RGD peptide, after 24 hours of culture, (b) immunofluorescence staining of a representative neoplastic cell (osteosarcoma cells) cultured on a polymer scaffold grafted with a mixture comprising a GFR-binding compound as defined in the present disclosure (ID SEQ NO: 2) and a RGD peptide, after 24 hours of culture. The actin filaments were immunostained by using Alexa 488-phalloidin. The focal adhesions were represented by immunostaining with anti-vinculin. The nucleus was stained with DAPI and is represented by a circle in the center of the cell. Scale bar: 5 μm. (c) is a diagram representing the grafting density of a radiolabeled GFR-binding compound as defined in the present disclosure covalently grafted on a polymer scaffold and of a radiolabeled GFR-binding compound and a non-labeled RGD peptide both grafted on a polymer scaffold. The measurements were performed by using radioactivity quantification (no significant difference was observed). […]
# [5] = system: Smad1/5/8 signaling pathway; assay: Growth factor receptor activation: quantification of western blots of phospho-Smad1/5/8; assay type: cell-based; details: human osteosarcoma cells MG63; 400 ng/mL GFR-binding compound; Table 4
# Method: as §1
# [6] = system: human osteosarcoma cells, MG63; assay: Tumor cell recoding via quantification of pRB (immunofluorescence, ImageJ); assay type: cell-based
# Method: The cells were first fixed for 20 min with 4% paraformaldehyde/PBS at 4° C. After fixation, the cells were permeabilized in PBS containing 1% Triton X-100 for 15 min. Protein immunofluorescent visualization was performed by first treating the cells with 1% (v/v) specific monoclonal antibodies for 1 hour at 37° C. Then the samples were incubated with Alexa Fluor® 568 or 647 (F(ab′)2 fragment of IgG(H+L)) during 30 min at room temperature. The cell nuclei were counterstained in 20 ng/mL DAPI for 10 min at room temperature.
# For this type of quantification the freeware image analysis ImageJ® software was used. The raw image was first converted to an 8-bit file, and then the unsharp mask feature was used (settings 1:0.2) to remove the image background (rolling ball radius 10). After smoothing, the resulting image, which appears similar to the original photomicrograph but with minimal background, was then converted to a binary image by setting a threshold. Threshold values were determined empirically by selecting a setting, which gave the most accurate binary image for a subset of randomly selected photomicrographs. The cell area was determined by manual delineation on raw fluorescent images. Total contact area and mean contact area per cell were calculated by “analyse particules” in ImageJ®. A minimum of 50 cells per condition were analyzed.
# Neoplastic cells (in this example osteosarcoma cells) were cultured on pharmaceutical associations comprising PET as a bioactive carrier and one of GFR-binding compounds of SEQ ID NO: 11 to 14, 24 to 26 and 51 to 63. A rapid (24 hours) decrease of the tumor markers was observed (FIG. 7). The adhesion checkpoint then activates the tumor suppressor proteins p53 and pRB. […]
Substance,phosphorylation at Thr202 and Tyr204 on ERK (ERK),phosphorylation of Src kinase (Src kinase),PDK1 protein expression [1],Paxillin gene expression (Paxillin),Vinculin gene expression (Vinculin),Cyclin D gene expression [2],also measured
SEQ ID NO: 39: GFR-binding compound covalently associated with PET as bioactive carrier; sequence only in the sequence listing (KASSVPTELSPISTLYKDENEKVVLKYHYDMVV; also: covalently attached to PET),absence of phosphorylation,no phosphorylation at Thr416 but phosphorylation of Tyr527,decrease,decreased,decreased,decreased,–
SEQ ID NO: 19: GFR-binding compound covalently associated with PET as bioactive carrier; sequence only in the sequence listing (PSSAPTQLSATSMLYYDDSSNVILRKHRQHNK; also: covalently attached to PET),absence of phosphorylation,no phosphorylation at Thr416 but phosphorylation of Tyr527,decrease,decreased,decreased,decreased,–
SEQ ID NO: 10: GFR-binding compound non-covalently associated with type-I collagen sponge; sequence only in the sequence listing (PSSAPTQLSATSVLYYDDSSNVILRKHR; not fully specified),–,–,–,–,–,–,release of GFR-binding compound from non-covalent association [3]: no significant release
SEQ ID NO: 30: GFR-binding compound covalently associated with PET as bioactive carrier; sequence only in the sequence listing (APTKLSAISMLYYDSSNNVIEQLSN; also: covalently attached to PET),absence of phosphorylation,no phosphorylation at Thr416 but phosphorylation of Tyr527,decrease,decreased,decreased,decreased,–
"SEQ ID NO: 12: GFR-binding compound covalently associated with PET as bioactive carrier; sequence only in the sequence listing (KVGKASSVPTKLSAISMLYLDDMGVPTLKNYQNMVVRAS; also: covalently attached to PET (bioactive carrier), site not given here)",absence of phosphorylation,no phosphorylation at Thr416 but phosphorylation of Tyr527,decrease,decreased,decreased,decreased,–
"SEQ ID NO: 2: a GFR-binding compound as defined in the present disclosure, grafted on a polymer scaffold in a mixture with a RGD peptide (KVGKASSVPTKLSAISTLYLDDMGVPTLKNYQNMVVRASGSH; also: grafted on polymer scaffold in mixture with RGD peptide)",–,–,–,–,–,–,Morphology of neoplastic cells by immunofluorescence visualization [4]: Spheroid-like structures of neoplastic cells become predominant
VPTELSPISILFIVGGKPKVYKQYENMVVE (Non-cyclic GFR-binding peptide) [SEQ ID NO: 90],–,–,–,–,–,–,p-Smad1/5/8 (%) [5]: 36%; pRB (%) ([6]; Table 4): 17%; pRB (%) ([6]; Table 5): 17%
SEQ ID NO: 9: GFR-binding compound non-covalently associated with apatite ceramics; sequence only in the sequence listing (RNVQCRPTQVQLSAISTLYLEIVRKKPLKNYQTLEDH; non-covalently associated with apatite ceramics; Non-cyclic GFR-binding peptide),–,–,–,–,–,–,release of GFR-binding compound from non-covalent association [3]: no significant release

# Source: patent US20190224279A1, “PHARMACEUTICAL ASSOCIATION COMPRISING A GROWTH FACTOR RECEPTOR AGONIST CONJUGATED TO A BIOACTIVE CARRIER FOR CONVERTING A NEOPLASTIC CELL INTO A NON-NEOPLASTIC CELL AND USES THEREOF” (HISTIDE AG, priority 2015, published 2019)
